Patent EP0577143A2, “Solid and liquid solutions of flavonoids” (ALFATEC-PHARMA GmbH, priority 1992, dated 1994)

Test: Clinical bioavailability study: renal excretion of flavones over 24 h after oral rutin
Type: in vivo, gesunden Probanden
Conditions: Rutin molecularly dispersed in gelatin, taken by volunteers
From the text: Die nahrungsbedingte Flavonausscheidung wurde dabei berücksichtigt und durch entsprechende Diätvorschriften möglichst gering gehalten.
Die Analytik und Identifikation der Flavonausscheidungen kann z.B. wie folgt durchgeführt werden: • 1. Saure Spaltung ( 1 M Salzsäure) der in biologischen Flüssigkeiten (Urin) enthaltenen Flavonkonjugate. • 2. Festphasenextraktion mit Methanol zur Anreicherung der freigesetzten Flavone (z.B. Extrelut^R, Fa. Merck). • 3. HPLC-Analytik mit Diodenarray-Detektion und Identifizierung einzelner Flavone, zusätzlich elektrochemische Identifikation (anodisches Oxidationspotential).
Die Empfindlichkeit der genannten Analytik ist >10 ng Flavon pro ml.

Question: With `C[C@@H]1O[C@@H](OC[C@H]2O[C@@H](Oc3c(-c4ccc(O)c(O)c4)oc4cc(O)cc(O)c4c3=O)[C@H](O)[C@@H](O)[C@@H]2O)[C@H](O)[C@H](O)[C@H]1O` [Rutin] as the compound, how does the Metaboliten in vivo read?
Answer: Quercetin, Kämpferol und Isorhamnetin
